Reference: US20100292184A1, “17BETA-CYANO-19-ANDROST-4-ENE DERIVATIVE, ITS USE AND MEDICAMENTS COMPRISING THE DERIVATIVE” (BAYER SCHERING PHARMA AG, priority 2007, published 2010)
Where two headings read alike, the source gives them in different places. Values belong to the compound of their own block, whether it stands above or below them.

Experiments:
[1] = molecular target: T1, mineralcorticoid receptor (Homo sapiens, UniProt P08235); assay: MR antagonism luciferase reporter cell line assay; format: cell-based
T1 sequence (P08235 1-984): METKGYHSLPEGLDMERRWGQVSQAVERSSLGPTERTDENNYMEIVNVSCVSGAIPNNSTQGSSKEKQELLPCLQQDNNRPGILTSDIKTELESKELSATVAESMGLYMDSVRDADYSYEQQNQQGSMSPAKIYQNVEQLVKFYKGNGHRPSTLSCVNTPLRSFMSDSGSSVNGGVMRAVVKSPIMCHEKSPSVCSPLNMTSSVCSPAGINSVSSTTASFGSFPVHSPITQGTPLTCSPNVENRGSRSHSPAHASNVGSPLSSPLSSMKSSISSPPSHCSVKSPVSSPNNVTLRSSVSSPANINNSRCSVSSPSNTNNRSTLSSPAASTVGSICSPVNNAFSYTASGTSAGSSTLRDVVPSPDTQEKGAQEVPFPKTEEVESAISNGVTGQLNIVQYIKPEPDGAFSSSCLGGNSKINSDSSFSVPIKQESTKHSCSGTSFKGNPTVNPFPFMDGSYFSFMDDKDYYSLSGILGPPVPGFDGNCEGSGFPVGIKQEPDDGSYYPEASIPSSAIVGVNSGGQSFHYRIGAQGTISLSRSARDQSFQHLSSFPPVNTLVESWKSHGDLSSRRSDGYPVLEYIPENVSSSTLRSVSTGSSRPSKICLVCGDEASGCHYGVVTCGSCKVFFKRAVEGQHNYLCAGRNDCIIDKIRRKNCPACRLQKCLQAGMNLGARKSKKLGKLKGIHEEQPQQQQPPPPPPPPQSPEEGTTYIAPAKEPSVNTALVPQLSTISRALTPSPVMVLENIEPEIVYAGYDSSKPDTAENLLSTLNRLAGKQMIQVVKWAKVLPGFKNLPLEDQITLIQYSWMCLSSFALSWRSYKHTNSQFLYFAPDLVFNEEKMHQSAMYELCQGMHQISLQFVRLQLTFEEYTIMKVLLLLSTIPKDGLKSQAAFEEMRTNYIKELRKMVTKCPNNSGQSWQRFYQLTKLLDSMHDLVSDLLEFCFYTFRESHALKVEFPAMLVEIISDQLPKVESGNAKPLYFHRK
Description: The derivatives according to the invention having the general chemical formula have a very strong gestagenic activity. […] They should therefore have in vivo potassium-retaining, natriuretic (antimeralcorticoid) action. These properties were determined using the test described below:
For the culturing of the cells used for the assay, the culture medium used was DMEM (Dulbecco's Modified Eagle Medium: […] of glucose; PAA, #E15-009) with 10% FCS (Biochrom, S0115, batch #615B), 4 mM L-glutamine, 1% penicillin/streptomycin, 1 mg/ml of G418 and 0.5 μg/ml of puromycin.
Reporter cell lines were grown in a density of 4×10^4 cells per hollow in white, nontransparent tissue culture plates in each case having 96 hollows (PerkinElmer, #P12-106-017) and kept in 6% DCC-FCS (activated carbon-treated serum, for the removal of interfering components contained in the serum). The compounds to be investigated were added eight days later, and the cells were incubated with the compounds for 16 hours. The experiments were carried out in triplicate. At the end of the incubation, the effector-containing medium was removed and replaced by lysis buffer. After luciferase assay substrate (promega, #E1501) had been added, the plates containing the 96 hollows were then introduced into a microplate luminometer (Pherastar, BMG labtech), and the luminescence was measured. The […] values were evaluated using software for the calculation of dose-activity relationships.

PR = molecular target: T2, PR (Rattus norvegicus, UniProt Q63449); assay: maintenance of pregnancy test on the rat; format: in vivo; conditions: ovarectomized pregnant rats; for PR in vivo ED50 (pregnancy-maintaining dose): s.c. once daily from day 8 to day 15 or 21, with oestrone 5 μg/kg/day
T2 construct: from tissue; host or cells: whole animal: pregnant, ovariectomized rats
T2 sequence (Q63449 1-923): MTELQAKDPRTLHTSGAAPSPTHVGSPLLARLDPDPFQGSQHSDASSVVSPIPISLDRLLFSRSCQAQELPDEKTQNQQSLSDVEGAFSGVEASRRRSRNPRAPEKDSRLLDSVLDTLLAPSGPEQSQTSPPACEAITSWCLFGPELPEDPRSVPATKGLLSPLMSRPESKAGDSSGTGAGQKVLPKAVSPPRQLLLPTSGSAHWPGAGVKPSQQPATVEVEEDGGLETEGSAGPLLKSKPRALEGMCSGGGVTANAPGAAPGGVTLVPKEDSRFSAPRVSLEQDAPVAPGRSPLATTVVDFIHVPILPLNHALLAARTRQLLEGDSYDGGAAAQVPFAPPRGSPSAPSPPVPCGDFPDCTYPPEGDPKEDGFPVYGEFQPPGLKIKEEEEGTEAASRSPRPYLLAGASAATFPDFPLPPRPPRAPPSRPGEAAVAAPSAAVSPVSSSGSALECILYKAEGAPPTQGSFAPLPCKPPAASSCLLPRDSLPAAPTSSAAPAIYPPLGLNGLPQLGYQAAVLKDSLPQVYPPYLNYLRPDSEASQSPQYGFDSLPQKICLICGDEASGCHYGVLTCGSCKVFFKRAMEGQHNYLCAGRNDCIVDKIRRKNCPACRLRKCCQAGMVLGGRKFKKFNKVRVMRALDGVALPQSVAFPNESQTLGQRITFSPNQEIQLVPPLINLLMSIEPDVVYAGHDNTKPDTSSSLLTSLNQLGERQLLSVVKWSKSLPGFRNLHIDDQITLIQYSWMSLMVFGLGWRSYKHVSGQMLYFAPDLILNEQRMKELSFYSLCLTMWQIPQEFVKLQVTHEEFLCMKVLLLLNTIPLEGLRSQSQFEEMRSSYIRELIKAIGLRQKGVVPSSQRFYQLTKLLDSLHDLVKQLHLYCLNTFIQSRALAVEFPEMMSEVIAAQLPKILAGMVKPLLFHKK
Source text: Carrying out the maintenance of pregnancy test on the rat:
In pregnant rats, the removal of the corpora lutea or oophorectomy induces an abortion. By means of the exogenous administration of progestins (gestagens) in combination with a suitable dose of an oestrogen, the maintenance of pregnancy is possible. The maintenance of pregnancy test on ovarectomized rats serves for the determination of the peripheral gestagenic activity of a compound.
Rats were paired overnight during proestrus. Pairing was checked on the morning of the following day by the appraisal of a vaginal smear. The presence of the sperm was evaluated here as day 1 of a commencing pregnancy. On day 8 of the pregnancy, the animals were ovarectomized under ether anaesthesia. The treatment with test compound and exogenous oestrogen (oestrone, 5 μg/kg/day) was carried out subcutaneously once daily from day 8 to day 15 or day 21 of the pregnancy. The first administration on day 8 was carried out two hours before oophorectomy. Intact control animals were given exclusively vehicle.
At the end of the experiment (day 15 or day 21), the animals were sacrificed under a CO2 atmosphere, and live foetuses (foetuses having a beating heart) and implantation sites (early resorptions and dead foetuses including autolysis and atrophic placentas) were counted in both uterine horns. On day 22, it was moreover possible to examine foetuses for malformations. In uteri without foetuses or implantation sites, the number of nidation sites was determined by staining with 10% strength ammonium sulphide solution. The maintenance of pregnancy rate was calculated as the quotient of the number of living foetuses and the total number of nidation sites (both resorbed and dead foetuses and nidation sites). For drospirenone, this value is 3.5 mg/kg/day.

[2] = reporter cell lines, 16 hours incubation, luciferase luminescence
[3] = reporter cell lines, 16 hours incubation, luciferase luminescence, read-out: MR Antagonism IC50

SMILES: C[C@]12CCC(=O)C=C1CC[C@H]1[C@@H]3[C@@H]4C[C@@H]4[C@](C)(C#N)[C@@]3(C)CC[C@@H]12 [17β-Cyano-17α-methyl-15β,16β-methyleneandrost-4-en-3-one]
MR Antagonism activity [% of the maximum effect] [1, 2]: 98.30 % of the maximum effect
IC50 [1, 3]: 42 nM
PR in vivo ED50 (pregnancy-maintaining dose) (PR): 10.0 mg/kg/d s.c.

SMILES: C[C@]12CC[C@H]3[C@@H]([C@H]4C[C@H]4C4=CC(=O)CC[C@@]43C)[C@@H]1[C@@H]1C[C@@H]1[C@@H]2C#N [6β,7β-15β,16β-Bismethylene-17β-cyanoandrost-4-en-3-one]
IC50 [1]: 4.7 nM
MR Antagonism activity [% of the maximum effect] [1, 2]: 98.06 % of the maximum effect
PR in vivo ED50 (pregnancy-maintaining dose) (PR): 7.3 mg/kg/d s.c.

pregnancy-maintaining dose (ED50) (PR; subcutaneous, with oestrone 5 μg/kg/day): 3.5 mg/kg/day
SMILES: C[C@]12CCC(=O)C=C1[C@@H]1C[C@@H]1[C@H]1[C@@H]3[C@@H]4C[C@@H]4[C@@]4(CCC(=O)O4)[C@@]3(C)CC[C@@H]12 [drospirenone, 6β,7β-15β,16β-dimethylene-3-oxo-17-pregn-4-ene-21,17β-carbolactone, reference compound]

SMILES: C[C@]12CC[C@H]3[C@@H](CC4(CC4)C4=CC(=O)CC[C@@]43C)[C@@H]1CC[C@@H]2C#N
IC50 [1]: 20 nM
MR Antagonism activity [% of the maximum effect] [1, 2]: 99.16 % of the maximum effect
PR in vivo ED50 (pregnancy-maintaining dose) (PR): 25.0 mg/kg/d s.c.

SMILES: C=CC[C@]1(C#N)CC[C@H]2[C@@H]3CCC4=CC(=O)CC[C@]4(C)[C@H]3CC[C@@]21C [17α-Allyl-17β-cyanoandrost-4-en-3-one]
MR Antagonism activity [% of the maximum effect] [1, 2]: 65.30 % of the maximum effect
IC50 [1, 3]: 990 nM
